Test results: publication PMC2365101, “Anti-Inflammatory Activity of (Polyphenolic)-Sulfonates and Their Sodium Salts in Rodents” (Metal-Based Drugs, 1998)

Assays:
[1] = test system: CF1 male mice, carrageenan induced edema; assay: Anti-inflammatory screen in mice (carrageenan induced foot edema); format: in vivo; settings: for reduction of edema: 16 mg/kg X 2
Source text: Few reports in the literature indicate interaction at these receptor sites other than by peptides or antibodies. […] Blocking these receptors is desirable because the entire inflammation cascade of events is triggered by the early release of TNFa and IL-1. […] Radioisotopes were obtained from New England Nuclear [Dupont, Boston, MA] and substrates and co- factors were obtained from Sigma Chemical Co. [St. Louis, MO]. […] Cell lines were obtained from American Type Culture Collection [Rockville, MD]. In Vivo Tests Anti-inflammatory screen in mice: Male CF male mice weighing 28-32g obtained from Jackson Lab. […] Evaluation of the induced edema was made by injecting 2% carrageenan in 0.9% saline into the plantar region of the foot. The opposite foot injected with 0.9% isotonic saline was used as a base line. […] Salmonella abortus equi [Lot # 69F4003] […] Drugs from 2 to 16 mg/kg, I.P. were administered 2 hr prior and 2 hr post-injection of the LPS and then subsequently for every 24 hr for the length ofthe animals' lives. Deaths were recorded every 12 hr and continued for 96 hr. […] In vitro TNFa andIL-1 Measurements and Cellular Regulation IC-21 mouse macrophages were maintained in RPMI-1640 + 10% FCS + P/S. After the cells had grown to confluency, E. coli LPS at 10 Ixg/ml was added to the medium. Agents were incubated at 12.5 to 100 µM final concentration for 18 hr. The medium (100 btl) was collected for TNFCt determinations. Interleukin-1 [IL-1] release was determined using P388D1 cells which were maintained in RPMI-1640 + 10% FCS + P/S. The L929 bioassay was used to quantitate the TNF and the IL-1 levels. The L929 mouse fibroblasts were grown in DMEM + 10% FCS + P/S to confluency in 96 well plates and incubated with 100 tl ofmedium from […] or P388D cells after 18 hr. The cells were stained with 0.2% crystal violet in 20% MeOH and read at 580 nm using a Molecular Devices scanner (SOFT-max program). High Affinity Binding to Receptors on L929-106 Cells Two laCi of 125I-TNFct (human recombinant, 30 mCi/tg New England Nuclear) or 125I-IL-1 (70-120[.t Ci/lxg,New England Nuclear) was added to confluency L929 cells for 90 min or 5 hr, respectively with 25, 50 and 100 tM of the test compounds 12]. The cells were washed repeatedly with isotonic saline, pH.7.2 and aliquots counted. Prostaglandin cylcooxygenase activity Mouse J774AI macrophages maintained in Dulbecco's modified Eagle's medium + 15% FCS + P/S. Cells (5 x 106) were incubated with agents (5 to 100 ].tM final concentration) and 3H-arachidonic acid (100 Ci/mol) for 60 min at 37C in a CO2 incubator. The reaction was terminated with 2N HCI, the mixture extracted 2 X with ether, and the organic layer evaporated.

[2] = test system: CF1 male mice, LPS Salmonella abortus equi induced death; assay: Protection against septic shock (LPS induced endotoxic shock); format: in vivo; settings: for Percent Survival at 52 hr: LPS 10 mg/kg, CF1 male mice, N=6
Source text: (§1) Few reports in the literature indicate interaction at these receptor sites other than by peptides or antibodies. […] Blocking these receptors is desirable because the entire inflammation cascade of events is triggered by the early release of TNFa and IL-1. […] Radioisotopes were obtained from New England Nuclear [Dupont, Boston, MA] and substrates and co- factors were obtained from Sigma Chemical Co. [St. Louis, MO]. […] Cell lines were obtained from American Type Culture Collection [Rockville, MD]. In Vivo Tests Anti-inflammatory screen in mice: Male CF male mice weighing 28-32g obtained from Jackson Lab. [Bar Harbor, […]] were used to screen agents at 8 or 16 mg/kg intraperitoneal [I.P.] x 2 administered 3 hr and 30 min prior to administering the irritant, according to Winter's protocol. Evaluation of the induced edema was made by injecting 2% carrageenan in 0.9% saline into the plantar region of the foot. The opposite foot injected with 0.9% isotonic saline was used as a base line. […] Salmonella abortus equi [Lot # 69F4003] […] Drugs from 2 to 16 mg/kg, I.P. were administered 2 hr prior and 2 hr post-injection of the LPS and then subsequently for every 24 hr for the length ofthe animals' lives. Deaths were recorded every 12 hr and continued for 96 hr. […] In vitro TNFa andIL-1 Measurements and Cellular Regulation IC-21 mouse macrophages were maintained in RPMI-1640 + 10% FCS + P/S. After the cells had grown to confluency, E. coli LPS at 10 Ixg/ml was added to the medium. Agents were incubated at 12.5 to 100 µM final concentration for 18 hr. The medium (100 btl) was collected for TNFCt determinations. Interleukin-1 [IL-1] release was determined using P388D1 cells which were maintained in RPMI-1640 + 10% FCS + P/S. The L929 bioassay was used to quantitate the TNF and the IL-1 levels. The L929 mouse fibroblasts were grown in DMEM + 10% FCS + P/S to confluency in 96 well plates and incubated with 100 tl ofmedium from […] or P388D cells after 18 hr. The cells were stained with 0.2% crystal violet in 20% MeOH and read at 580 nm using a Molecular Devices scanner (SOFT-max program). High Affinity Binding to Receptors on L929-106 Cells Two laCi of 125I-TNFct (human recombinant, 30 mCi/tg New England Nuclear) or 125I-IL-1 (70-120[.t Ci/lxg,New England Nuclear) was added to confluency L929 cells for 90 min or 5 hr, respectively with 25, 50 and 100 tM of the test compounds 12]. The cells were washed repeatedly with isotonic saline, pH.7.2 and aliquots counted. Prostaglandin cylcooxygenase activity Mouse J774AI macrophages maintained in Dulbecco's modified Eagle's medium + 15% FCS + P/S. Cells (5 x 106) were incubated with agents (5 to 100 ].tM final concentration) and 3H-arachidonic acid (100 Ci/mol) for 60 min at 37C in a CO2 incubator. The reaction was terminated with 2N HCI, the mixture extracted 2 X with ether, and the organic layer evaporated.

[3] = target: J774-A1 macrophage elastase; assay: Elastase activity in J774-A1 macrophages; format: biochemical, mouse
[4] = target: IC-21 macrophage elastase; assay: Elastase activity in IC-21 macrophages; format: biochemical, mouse
[5] = target: human leukocyte elastase (RPMI 1788); assay: Elastase activity in human leukocytes RPMI 1788; format: biochemical
[6] = target: J774-A1 prostaglandin cyclooxygenase; assay: Prostaglandin cyclooxygenase activity in J774-A1 macrophages; format: cell-based, mouse; settings: 60 min; read-out: IC50 Cyclo-oxygenase J774-A1
Source text: as §1

[7] = test system: CF1 male mice, LPS Salmonella abortus equi induced death; assay: Protection against septic shock (LPS induced endotoxic shock); format: in vivo
[8] = test system: cytokine synthesis and release; settings: tissue culture; no reference given; read-out: IC50 to block cytokine synthesis and release; cited from earlier work
[9] = 8 mg/Kg X 2, I.P., CF1 male mice, N=6
[10] = 16 mg/Kg X 2, I.P., CF1 male mice, N=6

Compound	Percent of Control (induced edema) [1, 9]	Percent of Control (induced edema) [1, 10]	Percent Survival at 52 hr ([2]; 4 mg/Kg I.P.) [%]	Percent Survival at 52 hr ([2]; 8 mg/Kg I.P.) [%]	protection from LPS induced death ([2]; 16 mg/kg) [%]	IC50 ([3]; 120 min) [µM]	IC50 ([4]; 60 min) [µM]	IC50 ([4]; 120 min) [µM]	IC50 ([5]; 60 min) [µM]	IC50 ([5]; 120 min) [µM]	IC50 [6] [µM]	Percent Survival at 52 hr ([2]; 16 mg/Kg I.P.) [%]	IC50 ([3]; 60 min) [µM]	further results
O=S(=O)(O)c1cc2c(O)c(c1)Cc1cc(S(=O)(=O)O)cc(c1O)Cc1cc(S(=O)(=O)O)cc(c1O)Cc1cc(S(=O)(=O)O)cc(c1O)Cc1cc(S(=O)(=O)O)cc(c1O)Cc1cc(S(=O)(=O)O)cc(c1O)Cc1cc(S(=O)(=O)O)cc(c1O)Cc1cc(S(=O)(=O)O)cc(c1O)C2 [Compound 1]	51 + 4% of Control	56+ 5% of Control	50	50	83	360	54	45	57	56	20.6			reduction of edema [1]: greater than 40%
O=S(=O)(O)c1cc2c(O)c(c1)Cc1cc(S(=O)(=O)O)cc(c1O)Cc1cc(S(=O)(=O)O)cc(c1O)Cc1cc(S(=O)(=O)O)cc(c1O)Cc1cc(S(=O)(=O)O)cc(c1O)Cc1cc(S(=O)(=O)O)cc(c1O)C2 [Compound 2]	47 + 4% of Control	74+ 5% of Control	50	50	83	240			67	57	76.2	83	7.9	Percent Survival at 52 hr ([2]; 2 mg/kg I.P.): 83%
O=S(=O)(O)c1cc2c(O)c(c1)Cc1cc(S(=O)(=O)O)cc(c1O)Cc1cc(S(=O)(=O)O)cc(c1O)Cc1cc(S(=O)(=O)O)cc(c1O)C2 [Compound 3]	58 + 6% of Control	61 +5% of Control	50	100		280	73	25	73	25	27.7	50	10 to 30	Percent Survival at 52 hr ([2]; 2 mg/kg I.P.): 67%; protection from LPS induced death ([2]; 8 mg/kg): 100%; IC50 ([3]; 60 min, listed as #3): 28.8 µM
COc1c2cc(S(=O)(=O)O)cc1Cc1cc(S(=O)(=O)O)cc(c1OC)Cc1cc(S(=O)(=O)O)cc(c1OC)Cc1cc(S(=O)(=O)O)cc(c1OC)Cc1cc(S(=O)(=O)O)cc(c1OC)Cc1cc(S(=O)(=O)O)cc(c1OC)Cc1cc(S(=O)(=O)O)cc(c1OC)Cc1cc(S(=O)(=O)O)cc(c1OC)C2 [Compound 4]	56 + 6% of Control	48+4% of Control	33	67	83	270	57	56	54	45	59.2	83	0.3	reduction of edema [1]: greater than 40%
COc1c2cc(S(=O)(=O)[O-])cc1Cc1cc(S(=O)(=O)[O-])cc(c1OC)Cc1cc(S(=O)(=O)[O-])cc(c1OC)Cc1cc(S(=O)(=O)[O-])cc(c1OC)C2.[Na+].[Na+].[Na+].[Na+] [Compound 5]		61 +5% of Control		33	67			111			65.1	67		IC50 Elastase J774-A1 ([3]; 120 min): Increased
CC(=O)CCCCn1c(=O)c2c(ncn2C)n(C)c1=O [Pentoxifylline, pentoxifylline]														Percent of Control (induced edema) ([1]; 50 mg/Kg X 2, CF1 male mice): 70 + 6% of Control; Percent Survival at 52 hr ([7]; 50 mg/Kg/day): 67 + 6%; protection from LPS induced death ([7]; 50 mg/kg): 67%
CCCCC1C(=O)N(c2ccccc2)N(c2ccccc2)C1=O [Phenylbutazone, phenylbutazone, reference compound]														reduction in edema ([1]; 50 mg/kg X 2): 47%
C[C@@H]1C[C@H]2[C@@H]3CCC4=CC(=O)C=C[C@]4(C)[C@@]3(F)[C@@H](O)C[C@]2(C)[C@@]1(O)C(=O)CO [dexamethasone, reference compound]														protection from LPS induced death ([2]; dexamethasone dose printed 'at mg/kg' (methods: 1 mg/kg)): 67%
C[C@]12CCC(=O)C=C1CC[C@@H]1[C@@H]2[C@@H](O)C[C@@]2(C)[C@H]1CC[C@]2(O)C(=O)CO [hydrocortisone]														IC50 [8]: 10 µM
N=C(N)c1ccc(OCCCCCOc2ccc(C(=N)N)cc2)cc1 [pentamidine]														IC50 [8]: 1 µM
